# Measured values: paper PMC9817970 (Cancers, 2022)
# Key:
# Experiment in all cases: Kinase panel profiling
# Format in all cases: biochemical
# Conditions in all cases: 10 μM ATP
# [1] = target: T1, DYRK3 (Homo sapiens, UniProt O43781)
# T1 construct: purchased Reaction Biology Corp
# Procedure: (§1) Kinase panel profiling was conducted by Reaction Biology Corp. (San Diego, CA, USA). A single dose (1.0 μM) of 6r was tested against 371 recombinant human kinases in the presence of 10 μM ATP.
# [2] = target: T2, CDK2/CYCLIN E (Homo sapiens, UniProt P24941)
# T2 construct: purchased Reaction Biology Corp
# Procedure: as §1
# [3] = target: T3, PKD2/PRKD2 (Homo sapiens, UniProt Q9BZL6)
# T3 construct: purchased Reaction Biology Corp
# Procedure: as §1
# [4] = target: T4, MELK (Homo sapiens, UniProt Q14680)
# T4 construct: purchased Reaction Biology Corp
# T4 sequence (Q14680 whole entry): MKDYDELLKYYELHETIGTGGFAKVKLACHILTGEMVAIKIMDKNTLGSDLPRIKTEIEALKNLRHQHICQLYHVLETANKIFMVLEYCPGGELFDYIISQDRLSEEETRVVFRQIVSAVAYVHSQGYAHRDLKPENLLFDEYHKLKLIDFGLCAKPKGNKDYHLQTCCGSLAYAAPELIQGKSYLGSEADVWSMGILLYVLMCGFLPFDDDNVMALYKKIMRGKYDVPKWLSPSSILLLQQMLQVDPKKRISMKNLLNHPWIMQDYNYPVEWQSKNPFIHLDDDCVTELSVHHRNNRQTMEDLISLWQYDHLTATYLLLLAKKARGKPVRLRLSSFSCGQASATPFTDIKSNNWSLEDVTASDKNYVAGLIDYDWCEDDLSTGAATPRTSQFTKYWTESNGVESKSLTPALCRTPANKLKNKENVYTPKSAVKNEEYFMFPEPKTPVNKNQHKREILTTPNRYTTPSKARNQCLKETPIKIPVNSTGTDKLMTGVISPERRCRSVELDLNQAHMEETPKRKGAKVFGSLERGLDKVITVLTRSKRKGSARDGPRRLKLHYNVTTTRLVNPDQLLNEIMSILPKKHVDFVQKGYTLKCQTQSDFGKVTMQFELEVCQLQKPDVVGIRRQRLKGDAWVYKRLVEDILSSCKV
# Procedure: as §1
# [5] = target: T5, GRK6 (Homo sapiens, UniProt P43250)
# T5 construct: purchased Reaction Biology Corp
# T5 sequence (P43250 whole entry): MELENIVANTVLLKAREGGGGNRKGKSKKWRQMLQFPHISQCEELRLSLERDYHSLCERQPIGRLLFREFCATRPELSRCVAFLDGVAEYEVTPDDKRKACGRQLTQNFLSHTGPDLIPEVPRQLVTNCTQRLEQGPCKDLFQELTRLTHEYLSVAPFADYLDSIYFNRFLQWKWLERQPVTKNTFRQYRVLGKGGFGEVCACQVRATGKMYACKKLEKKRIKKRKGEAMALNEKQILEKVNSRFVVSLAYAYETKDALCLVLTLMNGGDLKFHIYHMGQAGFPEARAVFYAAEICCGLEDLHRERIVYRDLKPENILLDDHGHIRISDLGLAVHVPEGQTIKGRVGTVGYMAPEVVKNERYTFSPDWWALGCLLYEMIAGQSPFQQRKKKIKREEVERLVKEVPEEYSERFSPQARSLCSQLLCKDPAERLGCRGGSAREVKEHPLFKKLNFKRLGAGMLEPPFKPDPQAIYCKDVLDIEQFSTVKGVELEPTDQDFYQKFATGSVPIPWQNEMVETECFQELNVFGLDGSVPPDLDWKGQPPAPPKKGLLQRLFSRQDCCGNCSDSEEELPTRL
# Procedure: as §1
# [6] = target: T6, STK33 (Homo sapiens, UniProt Q9BYT3)
# T6 construct: purchased Reaction Biology Corp
# T6 sequence (Q9BYT3 whole entry): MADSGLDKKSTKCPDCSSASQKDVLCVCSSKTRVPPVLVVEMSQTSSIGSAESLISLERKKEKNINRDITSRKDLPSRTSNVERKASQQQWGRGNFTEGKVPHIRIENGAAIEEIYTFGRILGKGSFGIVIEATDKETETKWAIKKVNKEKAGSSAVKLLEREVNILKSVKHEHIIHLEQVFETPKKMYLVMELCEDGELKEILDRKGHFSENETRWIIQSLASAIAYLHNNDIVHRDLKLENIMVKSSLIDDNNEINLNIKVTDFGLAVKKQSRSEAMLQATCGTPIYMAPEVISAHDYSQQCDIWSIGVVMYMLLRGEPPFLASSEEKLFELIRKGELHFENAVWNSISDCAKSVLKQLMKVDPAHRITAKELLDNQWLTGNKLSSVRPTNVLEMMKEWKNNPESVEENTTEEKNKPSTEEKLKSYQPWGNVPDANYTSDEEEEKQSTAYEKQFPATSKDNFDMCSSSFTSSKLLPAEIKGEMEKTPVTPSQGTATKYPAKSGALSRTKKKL
# Procedure: as §1
# [7] = target: T7, STK16 (Homo sapiens, UniProt O75716)
# T7 construct: purchased Reaction Biology Corp
# T7 sequence (O75716 whole entry): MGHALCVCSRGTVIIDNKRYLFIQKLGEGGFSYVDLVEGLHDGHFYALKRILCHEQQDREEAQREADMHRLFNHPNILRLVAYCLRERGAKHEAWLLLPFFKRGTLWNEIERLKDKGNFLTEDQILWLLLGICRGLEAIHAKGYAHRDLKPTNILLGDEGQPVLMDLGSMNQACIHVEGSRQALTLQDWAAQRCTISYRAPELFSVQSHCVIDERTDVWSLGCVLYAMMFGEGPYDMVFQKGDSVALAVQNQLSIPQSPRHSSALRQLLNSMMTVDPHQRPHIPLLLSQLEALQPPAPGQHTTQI
# Procedure: as §1
# [8] = target: T8, c-MER (Homo sapiens, UniProt Q12866)
# T8 construct: purchased Reaction Biology Corp
# T8 sequence (Q12866 21-999): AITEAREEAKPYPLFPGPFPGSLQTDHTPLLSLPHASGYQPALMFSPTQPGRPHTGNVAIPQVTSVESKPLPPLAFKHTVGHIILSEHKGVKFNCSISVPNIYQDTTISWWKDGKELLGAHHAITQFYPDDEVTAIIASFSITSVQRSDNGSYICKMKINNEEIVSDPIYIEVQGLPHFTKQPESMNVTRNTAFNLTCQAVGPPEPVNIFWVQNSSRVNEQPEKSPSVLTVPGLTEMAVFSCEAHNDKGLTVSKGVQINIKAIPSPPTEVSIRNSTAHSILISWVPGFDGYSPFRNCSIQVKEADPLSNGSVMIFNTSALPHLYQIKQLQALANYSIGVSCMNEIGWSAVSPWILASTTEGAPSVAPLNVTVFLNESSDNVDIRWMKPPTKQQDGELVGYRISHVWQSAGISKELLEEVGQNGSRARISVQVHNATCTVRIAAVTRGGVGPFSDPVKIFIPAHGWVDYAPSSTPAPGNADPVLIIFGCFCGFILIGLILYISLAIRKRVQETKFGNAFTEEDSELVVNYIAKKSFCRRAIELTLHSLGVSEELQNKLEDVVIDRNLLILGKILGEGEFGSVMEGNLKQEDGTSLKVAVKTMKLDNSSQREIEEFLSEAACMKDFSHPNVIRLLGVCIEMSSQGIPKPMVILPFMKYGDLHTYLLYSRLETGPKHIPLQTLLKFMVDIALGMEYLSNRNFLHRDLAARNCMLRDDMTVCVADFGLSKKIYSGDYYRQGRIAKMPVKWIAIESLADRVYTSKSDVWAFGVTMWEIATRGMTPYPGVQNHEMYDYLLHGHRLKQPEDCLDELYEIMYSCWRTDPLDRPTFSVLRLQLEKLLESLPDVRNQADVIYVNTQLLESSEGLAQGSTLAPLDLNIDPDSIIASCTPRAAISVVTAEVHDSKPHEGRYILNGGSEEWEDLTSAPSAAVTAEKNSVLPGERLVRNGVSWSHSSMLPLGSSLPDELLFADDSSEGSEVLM
# Procedure: as §1
# [9] = target: T9, MEKK6 (Homo sapiens, UniProt O95382)
# T9 construct: purchased Reaction Biology Corp
# Procedure: as §1
# [10] = target: T10, RIPK4 (Homo sapiens, UniProt P57078)
# T10 construct: purchased Reaction Biology Corp
# Procedure: as §1
# [11] = target: T11, ZAK/MLTK (Homo sapiens, UniProt Q9NYL2)
# T11 construct: purchased Reaction Biology Corp
# Procedure: as §1
# [12] = target: T12, RSK4 (Homo sapiens, UniProt Q9UK32)
# T12 construct: purchased Reaction Biology Corp
# Procedure: as §1
# [13] = target: T13, SSTK/TSSK6 (Homo sapiens, UniProt Q9BXA6)
# T13 construct: purchased Reaction Biology Corp
# Procedure: as §1
# [14] = target: T14, PAK1 (Homo sapiens, UniProt Q13153)
# T14 construct: purchased Reaction Biology Corp
# Procedure: as §1
# [15] = target: T15, KSR2 (Homo sapiens, UniProt Q6VAB6)
# T15 construct: purchased Reaction Biology Corp
# Procedure: as §1
# [16] = target: T16, PKCnu/PRKD3 (Homo sapiens, UniProt O94806)
# T16 construct: purchased Reaction Biology Corp
# Procedure: as §1
# [17] = target: T17, MAST3 (Homo sapiens, UniProt O60307)
# T17 construct: purchased Reaction Biology Corp
# Procedure: as §1
# [18] = target: T18, CDK14/cyclin Y (PFTK1) (Homo sapiens, UniProt O94921)
# T18 construct: purchased Reaction Biology Corp
# Procedure: as §1
# [19] = target: T19, CDK2/cyclin O (Homo sapiens, UniProt P24941)
# T19 construct: purchased Reaction Biology Corp
# Procedure: as §1
# [20] = target: T20, DYRK1/DYRK1A (Homo sapiens, UniProt Q13627)
# T20 construct: purchased Reaction Biology Corp
# Procedure: as §1
# [21] = target: T21, TTBK2 (Homo sapiens, UniProt Q6IQ55)
# T21 construct: purchased Reaction Biology Corp
# Procedure: as §1
# [22] = target: T22, SRPK1 (Homo sapiens, UniProt Q96SB4)
# T22 construct: purchased Reaction Biology Corp
# Procedure: as §1
# [23] = target: T23, WNK2 (Homo sapiens, UniProt Q9Y3S1)
# T23 construct: purchased Reaction Biology Corp
# Procedure: as §1
# [24] = target: T24, CAMK1g (Homo sapiens, UniProt Q96NX5)
# T24 construct: purchased Reaction Biology Corp
# T24 sequence (Q96NX5 whole entry): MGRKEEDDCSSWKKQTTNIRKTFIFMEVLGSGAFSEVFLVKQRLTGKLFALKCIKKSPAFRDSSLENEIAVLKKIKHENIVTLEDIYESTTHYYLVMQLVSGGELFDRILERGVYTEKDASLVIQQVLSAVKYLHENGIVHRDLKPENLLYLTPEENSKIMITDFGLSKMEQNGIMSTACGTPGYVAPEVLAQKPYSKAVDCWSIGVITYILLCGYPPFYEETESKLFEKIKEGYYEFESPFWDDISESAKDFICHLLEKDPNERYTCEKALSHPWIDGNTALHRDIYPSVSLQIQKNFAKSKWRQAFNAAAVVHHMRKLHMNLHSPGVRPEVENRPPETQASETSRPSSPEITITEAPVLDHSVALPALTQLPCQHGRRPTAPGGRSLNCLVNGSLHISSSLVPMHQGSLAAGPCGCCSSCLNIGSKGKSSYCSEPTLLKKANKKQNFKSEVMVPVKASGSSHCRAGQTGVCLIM
# Procedure: as §1
# [25] = target: T25, PKG1b (Homo sapiens, UniProt Q13976)
# T25 construct: purchased Reaction Biology Corp
# Procedure: as §1
# [26] = target: T26, CDK2/CYCLIN A (Homo sapiens, UniProt P24941)
# T26 construct: purchased Reaction Biology Corp
# Procedure: as §1
# [27] = target: T27, IRR/INSRR (Homo sapiens, UniProt P14616)
# T27 construct: purchased Reaction Biology Corp
# Procedure: as §1
# [28] = target: T28, CDK7/cyclin H (Homo sapiens, UniProt P50613)
# T28 construct: purchased Reaction Biology Corp
# Procedure: as §1
# [29] = target: T29, NEK9 (Homo sapiens, UniProt Q8TD19)
# T29 construct: purchased Reaction Biology Corp
# Procedure: as §1
# [30] = target: T30, GLK/MAP4K3 (Homo sapiens, UniProt Q8IVH8)
# T30 construct: purchased Reaction Biology Corp
# Procedure: as §1
# [31] = target: T31, CDK5/P25 (Homo sapiens, UniProt Q00535)
# T31 construct: purchased Reaction Biology Corp
# Procedure: as §1
# [32] = target: T32, SGK2 (Homo sapiens, UniProt Q9HBY8)
# T32 construct: purchased Reaction Biology Corp
# Procedure: as §1
# [33] = target: T33, CK1d (Homo sapiens, UniProt P48730)
# T33 construct: purchased Reaction Biology Corp
# T33 sequence (P48730 whole entry): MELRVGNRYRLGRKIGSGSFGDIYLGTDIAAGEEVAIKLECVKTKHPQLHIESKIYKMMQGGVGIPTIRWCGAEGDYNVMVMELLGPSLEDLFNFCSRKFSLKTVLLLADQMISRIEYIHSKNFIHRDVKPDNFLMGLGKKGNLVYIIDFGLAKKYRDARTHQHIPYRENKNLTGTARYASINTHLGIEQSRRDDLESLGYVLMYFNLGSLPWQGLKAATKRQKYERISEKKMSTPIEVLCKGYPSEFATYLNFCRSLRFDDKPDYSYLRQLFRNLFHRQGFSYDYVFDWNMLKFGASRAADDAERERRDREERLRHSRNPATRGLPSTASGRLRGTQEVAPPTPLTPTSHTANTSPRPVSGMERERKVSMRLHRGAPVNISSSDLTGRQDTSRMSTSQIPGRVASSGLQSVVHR
# Procedure: as §1
# [34] = target: T34, TAOK1 (Homo sapiens, UniProt Q7L7X3)
# T34 construct: purchased Reaction Biology Corp
# T34 sequence (Q7L7X3 whole entry): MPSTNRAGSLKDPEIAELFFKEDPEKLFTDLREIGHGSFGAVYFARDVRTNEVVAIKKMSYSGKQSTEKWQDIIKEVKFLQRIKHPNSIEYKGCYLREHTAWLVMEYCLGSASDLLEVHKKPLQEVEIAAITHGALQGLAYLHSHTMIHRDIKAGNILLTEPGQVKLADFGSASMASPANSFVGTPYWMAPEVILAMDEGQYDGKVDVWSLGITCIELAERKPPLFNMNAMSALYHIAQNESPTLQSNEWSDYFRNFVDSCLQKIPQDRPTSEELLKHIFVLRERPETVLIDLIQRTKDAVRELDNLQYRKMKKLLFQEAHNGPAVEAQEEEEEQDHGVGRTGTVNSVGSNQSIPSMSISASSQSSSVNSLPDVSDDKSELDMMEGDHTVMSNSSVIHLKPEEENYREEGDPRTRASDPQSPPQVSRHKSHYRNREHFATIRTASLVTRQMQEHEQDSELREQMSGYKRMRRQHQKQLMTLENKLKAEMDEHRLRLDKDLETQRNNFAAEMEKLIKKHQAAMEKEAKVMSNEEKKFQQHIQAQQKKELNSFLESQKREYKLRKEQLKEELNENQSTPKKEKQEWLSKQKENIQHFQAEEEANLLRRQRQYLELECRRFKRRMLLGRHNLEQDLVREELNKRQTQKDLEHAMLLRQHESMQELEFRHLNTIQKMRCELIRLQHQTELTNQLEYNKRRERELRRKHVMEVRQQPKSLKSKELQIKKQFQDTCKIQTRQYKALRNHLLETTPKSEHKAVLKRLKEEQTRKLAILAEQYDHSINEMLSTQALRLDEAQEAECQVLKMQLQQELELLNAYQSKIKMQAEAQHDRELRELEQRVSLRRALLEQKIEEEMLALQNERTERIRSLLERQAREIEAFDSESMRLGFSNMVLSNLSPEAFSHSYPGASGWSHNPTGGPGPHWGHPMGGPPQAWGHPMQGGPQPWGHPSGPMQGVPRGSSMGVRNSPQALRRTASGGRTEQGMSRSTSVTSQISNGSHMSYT
# Procedure: as §1
# [35] = target: T35, c-MET (Homo sapiens, UniProt P08581)
# T35 construct: purchased Reaction Biology Corp
# Procedure: as §1
# [36] = target: T36, HIPK2 (Homo sapiens, UniProt Q9H2X6)
# T36 construct: purchased Reaction Biology Corp
# Procedure: as §1
# [37] = target: T37, PKCa (Homo sapiens, UniProt P17252)
# T37 construct: purchased Reaction Biology Corp
# Procedure: as §1
# [38] = target: T38, PKCepsilon (Homo sapiens, UniProt Q02156)
# T38 construct: purchased Reaction Biology Corp
# Procedure: as §1
# [39] = target: T39, CDK8/cyclin C (Homo sapiens, UniProt P49336)
# T39 construct: purchased Reaction Biology Corp
# Procedure: as §1
# [40] = target: T40, PKCzeta (Homo sapiens, UniProt Q05513)
# T40 construct: purchased Reaction Biology Corp
# Procedure: as §1
# [41] = target: T41, PKAcb (Homo sapiens, UniProt P22694)
# T41 construct: purchased Reaction Biology Corp
# Procedure: as §1
# [42] = target: T42, DDR1 (Homo sapiens, UniProt Q08345)
# T42 construct: purchased Reaction Biology Corp
# Procedure: as §1
compound,measurement,setting,value
Cc1ccc(NC(=O)c2ccc(CN3CCN(C)CC3)c(C(F)(F)F)c2)cc1-c1cnc2sc(N)nc2c1 [6r],inhibition at 1 µM,[1],0%
same,inhibition at 1 µM,[2],0%
same,inhibition at 1 µM,[3],28.6%
same,inhibition at 1 µM,[4],17.1%
same,inhibition at 1 µM,[5],0%
same,inhibition at 1 µM,[6],9.5%
same,inhibition at 1 µM,[7],3.6%
same,inhibition at 1 µM,[8],6.1%
same,inhibition at 1 µM,[9],8%
same,inhibition at 1 µM,[10],4.8%
same,inhibition at 1 µM,[11],50%
same,inhibition at 1 µM,[12],1.8%
same,inhibition at 1 µM,[13],0%
same,inhibition at 1 µM,[14],6.9%
same,inhibition at 1 µM,[15],0%
same,inhibition at 1 µM,[16],23.8%
same,inhibition at 1 µM,[17],0%
same,inhibition at 1 µM,[18],0%
same,inhibition at 1 µM,[19],12.3%
same,inhibition at 1 µM,[20],17.4%
same,inhibition at 1 µM,[21],23.2%
same,inhibition at 1 µM,[22],46.3%
same,inhibition at 1 µM,[23],8.7%
same,inhibition at 1 µM,[24],20.8%
same,inhibition at 1 µM,[25],3.3%
same,inhibition at 1 µM,[26],0%
same,inhibition at 1 µM,[27],0%
same,inhibition at 1 µM,[28],3.2%
same,inhibition at 1 µM,[29],0%
same,inhibition at 1 µM,[30],15%
same,inhibition at 1 µM,[31],8.7%
same,inhibition at 1 µM,[32],3.8%
same,inhibition at 1 µM,[33],27.3%
same,inhibition at 1 µM,[34],6.1%
same,inhibition at 1 µM,[35],2.7%
same,inhibition at 1 µM,[36],0.5%
same,inhibition at 1 µM,[37],4.2%
same,inhibition at 1 µM,[38],0%
same,inhibition at 1 µM,[39],0%
same,inhibition at 1 µM,[40],0%
same,inhibition at 1 µM,[41],0%
same,inhibition at 1 µM,[42],99.9%
